Measurements taken from patent US20190183910A1, “ENHANCING DNA REPAIR AND PREVENTING AGING AND ITS CONSEQUENCES IN REPRODUCTIVE AND OTHER CELLS” (NEW YORK MEDICAL COLLEGE, priority 2016, published 2019).

Legend:
[1] = post-transplantation clinical trials; cited from earlier work
[2] = clinical use, FDA-approved for multiple sclerosis; cited from earlier work
[3] = tested on: mouse sperm; assay: Neutral comet assay on mouse sperm; type: cell-based; conditions: mouse sperm, H2O2 alone (1 mM), without ATM inhibitor, n=9, mean±SEM
Description: (§1) Treatment was performed with genotoxic stress (1 mM H2O2), S1P (200 μM), and S1P with genotoxic stress and control in culture for one hour. Also, the use of an ATM inhibitor was utilized (10 μM) (KU-55593, Abcam) (Li et al., 2014). We assessed DNA damage, apoptosis, and chromatin integrity. We also studied the DNA DSB repair gene expression by qRT-PCR in sperm lysates.
Slides were prepared 48 hours prior to experimentation by coating normal glass microscope slides with 500 μl normal melting point agar (NMPA, 0.5% w/v in PBS) solution and left to dry at room temperature for no less than 48 hours. Once samples were obtained, 10 μl of mouse sperm suspension was mixed with 90 μl of 0.5% low melting point agar (LMPA). Then, this 100 μl solution was added to the NMPA-coated slides. Coverslips were added and slides were placed on a metallic tray on ice and in the dark for 5 minutes. The cover slips were then removed and another layer of LMPA was added. Cover slips were subsequently replaced before the LMPA hardened. Slides were then kept in the dark on ice again for another 5 minutes. After ten minutes, the cover slips were removed and slides were placed in staining jars containing ice cold lysing solution (2.5 M NaCl, 100 mM EDTA, sodium N-laurylsacrosinate [SLS]. [1% w/v] and 10 mM Trizma base pH10, and 1% Triton-X-100 and 10% DMSO [immediately adding before use]) for 1 hour at 4° C. in a dark place.
After this lysis step, the slides were washed three times for 5 minutes with the cold electrophoresis buffer (0.089 M Tris base, 0.089 M boric acid and 2 mM EDTA [pH 8.3]), and then placed flatly in the electrophoresis tank face up for 30 minutes. This incubation period was used to achieve the unwinding of the DNA. Electrophoresis was then performed at 18 V for 60 minutes. After this, slides were washed twice in PBS for 5 minutes each. Before analysis could occur, the sperm within the slides needed to be fixed by two 10 minute washes in ethanol, and then air drying at room temperature. Ethidium bromide (50 μl at 10 μg/ml in water) was then added on the slide, and sealed with a cover slip. Slides were kept moist, wrapped in aluminum foil to prevent light exposure, and stored at 4° C. until analysis (Smart et al., 2008).
Slides from both alkaline and neutral comets were imaged by fluorescence microscopy using a Nikon OPTIPHOT microscope. ImageJ was used for comet assay analysis, which calculated tail length, tail moment, and % of DNA in the tail. […] The comets were “on scale” for the calculations to be correct (the brightest pixels of interest were below 255 on an 8-bit scale). […] To analyze the slides, an oval around the sperm head was drawn and calculated and then an oval around the sperm tail was drawn and calculated. […] It was calculated as the Pythagorean distance between two points. […]

[4] = tested on: human sperm; assay: Alkaline comet assay on human sperm; type: cell-based; conditions: H2O2 alone, without ATM inhibitor, n=3, mean±SEM
[5] = tested on: mouse sperm; assay: Alkaline comet assay on mouse sperm; type: cell-based; conditions: mouse sperm, H2O2 alone (1 mM), without ATM inhibitor, n=9, mean±SEM
Description: as §1
Slides were prepared 48 hours prior to experimentation by coating normal glass microscope slides with 500 μl normal melting point agar (0.5% w/v in PBS) solution and left to dry at room temperature for no less than 48 hours. Then, 10 μl of mouse sperm suspension was mixed with 90 μl of 0.5% LMPA. Then this 100 μl solution was added to the NMPA-coated slides. Coverslips were added and slides were placed on a metallic tray on ice and in the dark for 5 minutes. The cover slips were removed and a 90 μl layer of LMPA was added. Cover slips were subsequently replaced before the LMPA hardened. Slides were then kept in the dark on ice again for another 5 minutes. After ten minutes, the cover slips were removed and slides were placed in staining jars containing ice cold lysing solution (2.5 M NaCl, 200 mM NaOH, 100 mM EDTA, 10 mM Trizma Base, 1% Triton X-100 and 10% DMSO [pH 10]) for 1.5 hours at 4° C. in a dark place.
After this lysis step, the slides were washed three times for 5 minutes with TE buffer (pH 8.0), and then placed flatly in the electrophoresis tank face up for 30 minutes to achieve the unwinding of the DNA. The alkaline electrophoresis buffer in this tank included 300 mM NaOH and 1 mM EDTA [pH13]. This incubation period was used to achieve the alkaline unwinding of the DNA. Electrophoresis was then performed at 25 V, 300 mA for 30 minutes. After this, slides were washed twice in neutralization buffer (0.4 M Tris, pH 7.5) for 5 minutes each. Before analysis could occur, the sperm within the slides needed to be fixed by draining the slides well on paper towels and then subjecting them to two 10 minute washes in ethanol, and then air drying at room temperature for 5 minutes. Ethidium bromide (50 μl at 10 μg/ml in water) was then added on the slide, and sealed with a cover slip. Slides were kept moist, wrapped in aluminum foil to prevent light exposure, and stored at 4° C. until analysis (Williams et al., 2014).
Slides from both alkaline and neutral comets were imaged by fluorescence microscopy using a Nikon OPTIPHOT microscope. ImageJ was used for comet assay analysis, which calculated tail length, tail moment, and % of DNA in the tail. […] To analyze the slides, an oval around the sperm head was drawn and calculated and then an oval around the sperm tail was drawn and calculated. […] It was calculated as the Pythagorean distance between two points. […]

SMILES | benefit as antirejection medication [1] | safety profile [2] | percent tail DNA, neutral comet [3] | percent tail DNA, alkaline comet [4] | percent tail DNA, alkaline comet [5]
CCCCCCCCc1ccc(CCC(N)(CO)CO)cc1 [FTY720] | failed to show any significant benefit | acceptable safety profile |  |  | 
OO [H2O2, reference compound] |  |  | 29.6±0.64% | 24.0±1.70% | 27.3±0.90%
